Experimental data taken from patent US5032505A, “Inhibitors for glycosaminosyl transferase V” (Chembiomed, Ltd., priority 1988, dated 1991).

Tests used:
[1] = molecular target: T1, GnT-V (Mesocricetus auratus, UniProt A0A1U8C8T3); assay: GnT-V acceptor assay (transfer of GlcNAc from UDP-GlcNAc to synthetic acceptor); type: biochemical
T1 sequence (A0A1U8C8T3 1-740): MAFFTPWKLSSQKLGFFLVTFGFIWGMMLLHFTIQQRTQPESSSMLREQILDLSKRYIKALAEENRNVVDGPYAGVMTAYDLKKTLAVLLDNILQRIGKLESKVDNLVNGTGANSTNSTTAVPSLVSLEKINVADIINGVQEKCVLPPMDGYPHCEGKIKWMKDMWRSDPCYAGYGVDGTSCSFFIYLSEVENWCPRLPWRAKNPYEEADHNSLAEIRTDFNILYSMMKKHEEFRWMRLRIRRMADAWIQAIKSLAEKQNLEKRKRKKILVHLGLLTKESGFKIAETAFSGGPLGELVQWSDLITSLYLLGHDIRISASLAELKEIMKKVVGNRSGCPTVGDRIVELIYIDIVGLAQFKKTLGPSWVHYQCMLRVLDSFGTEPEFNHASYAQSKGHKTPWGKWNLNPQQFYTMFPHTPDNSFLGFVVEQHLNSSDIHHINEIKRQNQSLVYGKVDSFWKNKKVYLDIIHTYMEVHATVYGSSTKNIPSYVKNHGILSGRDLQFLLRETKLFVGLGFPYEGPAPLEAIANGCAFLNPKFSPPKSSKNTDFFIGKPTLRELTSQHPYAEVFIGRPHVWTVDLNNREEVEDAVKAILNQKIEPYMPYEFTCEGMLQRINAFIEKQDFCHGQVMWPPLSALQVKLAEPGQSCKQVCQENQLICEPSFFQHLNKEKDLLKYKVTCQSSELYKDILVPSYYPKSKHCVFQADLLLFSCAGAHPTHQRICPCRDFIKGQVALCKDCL
Description: One form of the assay is conducted by measuring the uptake of beta-GlcNAc from UDP-beta GlcNAc in the presence of the test extract by the acceptors of the invention. A variety of protocols to detect this uptake can be employed, including, for example, conjugation of the acceptor to a solid support and measuring the uptake of labeled beta-GlcNAc. An illustrative procedure is set forth, using as acceptor the trisaccharide 8-methoxycarbonyl octyl beta-GlcNAc(1-2)alpha-Man(1-6)beta-Man, in Pierce, M., et al, Biochem Biophys Res Commun (1987) 146:679-684, incorporated herein by reference. This procedure uses radiolabeled UDP-beta GlcNAc to provide a detection means for uptake of the substrate. Other protocols for measuring GnT-V using the acceptors of the invention can be adapted, for example, from the procedure used to measure the levels of GnT-V acceptor in EPO published application 134,292 to Abbott Laboratories.
The procedure for assaying GnT-V activity is described in Tahir, S.H., et al, Can J Chem (1986) 64:1771, cited above, and incorporated herein by reference. This procedure is also described in Palcic, M. M., et al, Glycoconjugate J (1988) 5:49, and in Hindsgual, O., et al, Carbohydrate Res (1988) 173:263, both incorporated herein by reference. The latter two citations describe the results of this assay using various synthetic acceptors.

[2] = molecular target: T1, GnT-V; conditions: as acceptor for GnT-V; Palcic reference; read-out: apparent Km; cited from earlier work
[3] = tested on: Lec8 CHO Cells
[4] = tested on: B16 melanoma; conditions: literature; cited from earlier work
[5] = tested on: tumor cells; conditions: literature; cited from earlier work
[6] = tested on: MDAY-D2 lymphoma cells; conditions: literature; cited from earlier work
[7] = tested on: tumor cells; conditions: literature; cited from earlier work; remark: listed apart in the source

With `CCCCCCCCO[C@@H]1O[C@H]([C@@H](C)O[C@H]2O[C@H](CO)[C@@H](O)[C@H](O)[C@@H]2O[C@@H]2O[C@H](CO)[C@@H](O)[C@H](O)[C@H]2NC(C)=O)[C@@H](O)[C@H](O)[C@H]1O` the “Vmax relative to the unmethylated analog” value ([1]; as acceptor, assay of the Pierce reference) was “three times that of the unmethylated analog”.
For `COC(=O)CCCCCCCCO[C@@H]1O[C@H](CO[C@H]2O[C@H](CO)[C@@H](O)[C@H](O)[C@@H]2O[C@@H]2O[C@H](CO)[C@@H](O)[C@H](O)[C@H]2NC(C)=O)[C@@H](O)[C@H](O)[C@@H]1O` [8-methoxycarbonyloctyl 6-O-[2-O-(2-acetamido-2-deoxy-beta-D-glucopyranosyl)-alpha-D-mannopyranosyl]-beta-D-mannopyranoside], the Km [2] is listed as 80 µM.
In the case of `CC(=O)N[C@H]1[C@H](O[C@@H]2[C@@H](OCC3CCCCC3)O[C@H](CO)[C@@H](O)[C@@H]2O)O[C@H](CO)[C@@H](O)[C@@H]1O` [Cyclohexylmethyl 6-O-[2-O-(2-acetamido-2-deoxy-beta-D-glucopyranosyl)-alpha-D-mannopyranoside]], the “ability to act as an acceptor, relative to the remaining compounds” value ([1]; relative to the other five octyl trisaccharide acceptors) is reported as “about 25%”.
In the case of `COC(=O)CCCCCCCCO[C@@H]1O[C@H](CO[C@H]2O[C@H](CO)[C@@H](O)[C@H](O)[C@@H]2O)[C@@H](O)[C@H](O[C@H]2O[C@H](CO)[C@@H](O)[C@H](O)[C@@H]2O)[C@@H]1O` [GnT-1 Acceptor], the entry into cells [3] is reported as “has entered the cells to some extent after 3 hr and to a greater extent after 6”.
In the case of `O[C@H]1[C@H](O)[C@@H](O)CN2CC[C@H](O)[C@H]12` [castanospermine], the “organ colonization by B16 melanoma” value [4] is listed as “inhibit organ colonization by B16 melanoma”.
In the case of `CCCCCCCCO[C@@H]1O[C@H]([C@H](C)O[C@H]2O[C@H](CO)[C@@H](O)[C@H](O)[C@@H]2O[C@@H]2O[C@H](CO)[C@@H](O)[C@H](O)[C@H]2NC(C)=O)[C@@H](O)[C@H](O)[C@H]1O` [proS methylated compound], the “effectiveness as an acceptor” value ([1]; compared with the proR methylated compound) is reported as “less effective as an acceptor”.
In the case of `O[C@H]1[C@H]2[C@H](O)CCCN2C[C@H]1O` [swainsonine], the “tumor cell growth rate in soft agar” value [5] is listed as “reduce tumor cell growth rate in soft agar”, the “colonization by metastatic MDAY-D2 lymphoma cells” value [6] is listed as “inhibit colonization by metastatic MDAY-D2 lymphoma cells” and the “susceptibility of tumor cells to natural killer cells” value [7] is listed as “enhance susceptibility of tumor cells to natural killer cells”. The “organ colonization by B16 melanoma” value [4] was “inhibit organ colonization by B16 melanoma”.
In the case of tunicamycin, the “organ colonization by B16 melanoma” value [4] is given as “inhibit organ colonization by B16 melanoma”.
